Experimental data from paper PMC5601486, “Identification of 4-phenylquinolin-2(1H)-one as a specific allosteric inhibitor of Akt” (Scientific Reports, 2017).

Legend:
EGFR(T790M) = assay: KINOMEscan; conditions: 50000 nM
Method: KINOMEscan™ selectivity screen
(§5) The assay was perfor med at DiscoveRx Corporation according the methods published previously5. Briefly, Kinase-tagged T7 phage strains were grown in parallel in an E. coli host derived from the BL21 strain. E. coli were grown to log-phase and infected with T7 phage from a frozen stock and incubated with shaking at 32°C until lysis (90-150 minutes). The kinases were produced in HEK-293 cells and subsequently tagged with DNA for qPCR detection. Streptavidin-coated magnetic beads were treated with biotinylated small molecule ligands to generate affinity resins for kinase
(§6) inhibitor or DMSO control was performed in polypropylene 384-well plates for 1 hr at room temperature. After wash with PBS buffer containing 0.05% Tween 20, the beads were incubated in elution buffer (PBS containing 0.05 % Tween 20 and 0.5 μM non-biotinylated affinity ligand) for 30 minutes at room temperature. The kinase concentration in the eluates was measured by qPCR.

FGR = assay: KINOMEscan; conditions: 50000 nM
Method: KINOMEscan™ selectivity screen
as §5, §6

TAOK3 = assay: KINOMEscan; conditions: 50000 nM
Method: KINOMEscan™ selectivity screen
as §5, §6

CSNK2A1 = assay: KINOMEscan; conditions: 50000 nM
Method: KINOMEscan™ selectivity screen
as §5, §6

GSK3A = assay: KINOMEscan; conditions: 50000 nM
Method: KINOMEscan™ selectivity screen
(§7) Briefly, Kinase-tagged T7 phage strains were grown in parallel in an E. coli host derived from the BL21 strain. E. coli were grown to log-phase and infected with T7 phage from a frozen stock and incubated with shaking at 32°C until lysis (90-150 minutes). The kinases were produced in HEK-293 cells and subsequently tagged with DNA for qPCR detection. Streptavidin-coated magnetic beads were treated with biotinylated small molecule ligands to generate affinity resins for kinase
as §6

MAP3K4 = assay: KINOMEscan; conditions: 50000 nM
Method: KINOMEscan™ selectivity screen
as §5, §6

MAP4K4 = assay: KINOMEscan; conditions: 50000 nM
Method: KINOMEscan™ selectivity screen
as §5, §6

CLK4 = assay: KINOMEscan; conditions: 50000 nM
Method: KINOMEscan™ selectivity screen
as §5, §6

DRAK2 = assay: KINOMEscan; conditions: 50000 nM
Method: KINOMEscan™ selectivity screen
as §5, §6

MKK7 = assay: KINOMEscan; conditions: 50000 nM
Method: KINOMEscan™ selectivity screen
as §5, §6

CDC2L2 = assay: KINOMEscan; conditions: 50000 nM
Method: KINOMEscan™ selectivity screen
as §7, §6

VPS34 = assay: KINOMEscan; conditions: 50000 nM
Method: KINOMEscan™ selectivity screen
as §5, §6

EPHA3 = assay: KINOMEscan; conditions: 50000 nM
Method: KINOMEscan™ selectivity screen
as §5, §6

mTORC2 = assay: Western blot of mTOR S2481 phosphorylation; assay type: cell-based, Mouse; conditions: all concentrations tested including 80 µM
Method: (§1) Neuro 2A cells were seeded in 12-well plates in DMEM containing 5% FBS for 24 hr.
(§2) After overnight serum starvation (in 0% FBS DMEM), cells were incubated for 30 min at 37 °C with G7 or LY294002 or Torin 1 (Sigma Aldrich) at various concentrations, or DMSO control. IGF-1 was added to each well at a final concentration of 100 ng/mL. After 30-min incubation cells were washed with cold PBS and lysed with 50 µL lysis buffer containing 1% Triton X-100 and protease/phosphatase inhibitors (Cell Signaling Technology) or RIPA buffer (Santa Cruz Biotech). Samples were electrophoresed in 4–12% Bis-Tris gels (Life Technologies) at 150 V using MOPS SDS running buffer. Proteins were transferred electrophoretically to a PVDF or nitrocellulose membrane. For detection of cleaved […]
(§3) caspase 3 a Trans-Blot Turbo Transfer System (Bio-Rad, 25 V for 25 min) with PVDF membrane were used. […]
(§4) anti- GAPDH (14C10) antibody (#2118) (all antibodies were from Cell Signaling Technology unless indicated, 1:1000 dilution was used) at 4°C overnight, washed three times with TBS-T, then incubated with peroxidase-conjugated secondary antibody (Sigma-Aldrich) for 1 hr at room temperature. […] Band intensity was quantitated using Kodak 1D imaging analysis software. […]

ACVR1B = assay: KINOMEscan; conditions: 50000 nM
Method: KINOMEscan™ selectivity screen
as §5, §6

[1] = test system: RSK2(Kin.Dom.1-N-terminal); assay: KINOMEscan; conditions: 50000 nM
Method: KINOMEscan™ selectivity screen
as §5, §6

ERBB4 = assay: KINOMEscan; conditions: 50000 nM
Method: KINOMEscan™ selectivity screen
as §5, §6

DDR1 = assay: KINOMEscan; conditions: 50000 nM
Method: KINOMEscan™ selectivity screen
as §5, §6

CSNK1G1 = assay: KINOMEscan; conditions: 50000 nM
Method: KINOMEscan™ selectivity screen
as §5, §6

CDK4-cyclinD1 = assay: KINOMEscan; conditions: 50000 nM
Method: KINOMEscan™ selectivity screen
as §5, §6

MAP3K1 = assay: KINOMEscan; conditions: 50000 nM
Method: KINOMEscan™ selectivity screen
as §7, §6

[2] = test system: RPS6KA4(Kin.Dom.2-C-terminal); assay: KINOMEscan; conditions: 50000 nM
Method: KINOMEscan™ selectivity screen
as §5, §6

PLK4 = assay: KINOMEscan; conditions: 50000 nM
Method: KINOMEscan™ selectivity screen
as §5, §6

DDR2 = assay: KINOMEscan; conditions: 50000 nM
Method: KINOMEscan™ selectivity screen
as §5, §6

[3] = test system: ABL1(M351T)-phosphorylated; assay: KINOMEscan; conditions: 50000 nM
Method: KINOMEscan™ selectivity screen
(§8) The assay was perfor med at DiscoveRx Corporation according the methods published previously5. […] The kinases were produced in HEK-293 cells and subsequently tagged with DNA for qPCR detection. Streptavidin-coated magnetic beads were treated with biotinylated small molecule ligands to generate affinity resins for kinase
as §6

PKMYT1 = assay: KINOMEscan; conditions: 50000 nM
Method: KINOMEscan™ selectivity screen
as §7, §6

PKA = assay: Western blot of PKA phosphorylation; assay type: cell-based, Mouse; conditions: Neuro 2A cells
Method: as §1, §2, §3, §4

SIK2 = assay: KINOMEscan; conditions: 50000 nM
Method: KINOMEscan™ selectivity screen
as §7, §6

NEK11 = assay: KINOMEscan; conditions: 50000 nM
Method: KINOMEscan™ selectivity screen
as §7, §6

IKK-epsilon = assay: KINOMEscan; conditions: 50000 nM
Method: KINOMEscan™ selectivity screen
as §7, §6

Akt = test system: T1, Akt; assay: In vitro phosphorylation of Akt S473 by MAPKAP kinase 2; assay type: biochemical; conditions: inactive Akt, PE/PC/PS/PIP3 vesicles
T1 construct: purchased Millipore 14-279

CDKL3 = assay: KINOMEscan; conditions: 50000 nM
Method: KINOMEscan™ selectivity screen
as §7, §6

IKK-beta = assay: KINOMEscan; conditions: 50000 nM
Method: KINOMEscan™ selectivity screen
as §5, §6

SRPK2 = assay: KINOMEscan; conditions: 50000 nM
Method: KINOMEscan™ selectivity screen
as §8, §6

CDK5 = assay: KINOMEscan; conditions: 50000 nM
Method: KINOMEscan™ selectivity screen
as §5, §6

AURKA = assay: KINOMEscan; conditions: 50000 nM
Method: KINOMEscan™ selectivity screen
as §5, §6

LTK = assay: KINOMEscan; conditions: 50000 nM
Method: KINOMEscan™ selectivity screen
as §5, §6

RET(V804L) = assay: KINOMEscan; conditions: 50000 nM
Method: KINOMEscan™ selectivity screen
as §5, §6

## Oc1cc(-c2ccccc2)c2ccccc2n1 [G7, 4-phenylquinolin-2(1H)-one]
EGFR(T790M)
  Percent Control: 100%
FGR
  Percent Control: 88%
TAOK3
  Percent Control: 100%
CSNK2A1
  Percent Control: 78%
GSK3A
  Percent Control: 22%
MAP3K4
  Percent Control: 100%
MAP4K4
  Percent Control: 100%
CLK4
  Percent Control: 80%
DRAK2
  Percent Control: 86%
MKK7
  Percent Control: 100%
CDC2L2
  Percent Control: 88%
VPS34
  Percent Control: 35%
EPHA3
  Percent Control: 66%
mTORC2
  phosphorylation of mTORC2 at S2481: did not inhibit
ACVR1B
  Percent Control: 100%
[1]
  Percent Control: 17%
ERBB4
  Percent Control: 86%
DDR1
  Percent Control: 84%
CSNK1G1
  Percent Control: 89%
CDK4-cyclinD1
  Percent Control: 95%
MAP3K1
  Percent Control: 71%
[2]
  Percent Control: 92%
PLK4
  Percent Control: 80%
DDR2
  Percent Control: 87%
[3]
  Percent Control: 55%
PKMYT1
  Percent Control: 65%
PKA
  phosphorylation (activation status) of PKA: did not alter
SIK2
  Percent Control: 78%
NEK11
  Percent Control: 90%
IKK-epsilon
  Percent Control: 100%
Akt
  in vitro phosphorylation of S473 by MAPKAP kinase 2: impaired
CDKL3
  Percent Control: 89%
IKK-beta
  Percent Control: 83%
SRPK2
  Percent Control: 84%
CDK5
  Percent Control: 75%
AURKA
  Percent Control: 50%
LTK
  Percent Control: 95%
RET(V804L)
  Percent Control: 83%
